Laboratory results from patent US9918963B2, “Therapeutic agent for disease based on inhibitory effect of macrophage migration inhibitory factor” (TOYAMA CHEMICAL CO., LTD., priority 2013, dated 2018).
One block for each compound: values may come before it.

How the values were obtained:
[1] = test system: chronic constriction nerve injury model rat; assay: Chronic constriction nerve injury model rat, mechanical allodynia by von Frey test; type: in vivo; settings: von Frey test, left hind paw
Method: This test was performed by referring to a method of Bennett et al. (Pain, 1988, vol. 33, pp. 87-107). Compound A was used as a test substance, and celecoxib, one of NSAIDs, was used as a reference substance. The compound A was administered at a dose of 30 mg/kg (Compound A group). The celecoxib was administered at a dose of 30 mg/kg (celecoxib group). To a control group, a 0.5% methyl cellulose aqueous solution used as a vehicle was administered. Under anesthetic with Somnopentyl (manufactured by Kyoritsu Seiyaku Corporation, about 52 mg/kg, intraperitoneal administration), nerve constriction operation was performed on the left sciatic nerves of Sprague-Dawley male rats (7 weeks old). Briefly, a left femoral region of each rat was dissected, the sciatic nerve was detached from tissues around, and the nerve was loosely constricted with a 4-0 silk suture (manufactured by Eticon Inc., surgical silk) for having narrow parts in four positions at intervals of about 1 mm. The muscular layer and the skin were respectively sutured, and the operation region was disinfected. The vehicle, the test substance or the reference substance was orally administered once a day continuously for 14 days from the 16th day after the operation. From the start of the administration, pain sense (mechanical allodynia) of the footpad of left hind paw was evaluated by von Frey test. […] The evaluation of the pain sense was expressed as an average of pain threshold values.

[2] = molecular target: T1, MIF (Homo sapiens, UniProt P14174); assay: Inhibition of MIF tautomerase activity (L-dopachrome methyl ester, absorbance at 475 nm); type: biochemical; settings: 30 μmol/L test substance, 10 to 50 nmol/L MIF, pH 6.2, control = 100%; read-out: Inhibition Rate of Tautomerase Reaction
T1 construct: (catalogue number not given); host or cells: E. coli BL21 Star (DE3)
T1 sequence (P14174 2-115 limits assumed): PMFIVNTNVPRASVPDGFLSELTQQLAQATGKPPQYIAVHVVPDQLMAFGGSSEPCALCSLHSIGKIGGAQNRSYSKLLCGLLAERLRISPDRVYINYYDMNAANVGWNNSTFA
Method: The inhibitory effect of test substances against tautomerase activity of MIF was evaluated by referring to a method of Healy et al. (Cancer Epidemiology Biomarkers and Prevention, 2011, vol. 20, pp. 1516-1523).
In this method, tautomeric reaction from L-3,4-dihydroxyphenylalanine methyl ester (L-dopachrome methyl ester, colored) to 5,6-hydroxyindole-2-carboxylic acid methyl ester (no color) is measured as a change in absorbance at 475 nm.
As an enzyme source, recombinant MIF manufactured by Abcam Plc. or MIF produced and purified by referring to a method of Lubetsky et al. (The Journal of Biological Chemistry, 2002, vol. 277, pp. 24976-24982) was used. A purification method for MIF is described below.
The pET15b vector (Merck) into which the full length gene sequence of MIF had been inserted was transfected E. coli BL21 Star (DE3) strain (Life Technologies Corporation). […] The E. coli were resuspended in buffer (pH 7.5) containing 20 mmol/L Tris (Wako Pure Chemical Industries, Ltd.), 20 mmol/L sodium chloride (Wako Pure Chemical Industries, Ltd.) and 1 mmol/L dithiothreitol (Wako Pure Chemical Industries, Ltd.), and the resultant was subjected to ultrasonic lysis and centrifugation at 15000 rpm for 10 minutes. The thus obtained supernatant was filtered using a 0.20 μm filter, and was allowed to pass through HiTrap Q HP and HiTrap SP HP columns (GE Healthcare Japan Corporation), so as to separate flow-through fractions each of 5 mL. Each of 10 μL of the separated fractions was subjected to the electrophoresis using 5 to 20% polyacrylamide gel (Wako Pure Chemical Industries, Ltd.), and all proteins were stained with Coomassie brilliant blue reagent (Bio-Rad Laboratories, Inc.). On the basis of results thus obtained, a fraction containing a large amount of MIF and containing least amount of other proteins was selected as purified MIF. The concentration of MIF protein was measured by using BCA protein assay reagent (Thermo Fisher Scientific K. K.).
Inhibitory effect of each test substance against MIF tautomerase activity was measured as follows.
A final concentration of 10 to 50 nmol/L of MIF and a final concentration of 30 μmol/L of each test substance or 0.5% dimethyl sulfoxide (Wako Pure Chemical Industries, Ltd.) as a control were added to buffer (pH 6.2) containing 50 mmol/L Bis-Tris (Dojindo Laboratories) and 1 mmol/L EDTA (Dojindo Laboratories), and reaction was performed at room temperature for 15 minutes to give a reaction solution 1.
On the other hand, 1/20 volume of 12 mmol/L L-3,4-dihydroxyphenylalanine methyl ester (Sigma Aldrich) and 1/20 volume of 24 mmol/L sodium periodate (Wako Pure Chemical Industries, Ltd.) were added to buffer having the same composition as that used for obtaining the reaction solution 1, to give a reaction solution 2.
Next, the reaction solution 1 and the reaction solution 2 were mixed, and the temporal change of absorbance at 475 nm of the obtained mixture was immediately measured.
The difference of the absorbencies between the at about 1 minute after the measurement start and at about 5 minutes after was obtained. Assuming that the absorbance change of the control is 100%, an inhibiting rate of the tautomerase reaction in presence of=each test substance was calculated.

[3] = test system: chronic relapsing EAE model of mouse; type: in vivo
Method: Compound A was selected as a test substance, and salazosulfapyridine (hereinafter referred to as SASP) was selected as a comparative control agent. Compound A was administered at a dose of 30 mg/kg (Compound A group). SASP was administered at a dose of 300 mg/kg (SASP group). In control group and normal group (no induction treatment group), 0.5% methyl cellulose aqueous solution used as vehicle of the administration liquid was administered.
The chronic relapsing EAE was induced in SJL/J female mice by immunization with partial PLP peptide. Briefly, an emulsion was prepared by mixing equivalent volumes of phosphate buffer saline containing 1 mg/mL of the peptide corresponding to residues 139-151 of the PLP and Freund's […] adjuvant containing 4 mg/mL of killed M. Tuberculosis H37Ra. The emulsion was intradermically injected (50 μg of PLP per mouse) into four positions on the back for immunization, and additionally, on the day of the immunization and two days after, pertussis toxin was intraperitoneally injected in each amount of 150 ng per mouse, twice in total. The vehicle, the test substance or the reference article was orally administered continuously for 44 days once daily from the day of the immunization.
In the present experiment, paralysis was developed to reach a peak on the 14th to 16th day after the immunization, and the symptom remitted once, but relapsed to reach a peak on the 38th day.
The symptom was evaluated in accordance with a report of Weaver et al. (FASEB Journal, 2005, vol. 19, p. 1668). Briefly, paralysis of all of the four limbs and the tail was evaluated by scoring in 4 ranks of scores of 0 to 3 and in 3 ranks of scores of 0 to 2, respectively, and the sum of the scores was determined as EAE score (the maximum score 14).
Incidence rates (the number of mice having developed the disease/the number of used mice) and the average of EAE score of each group were measured at the period of initial onset (on the 15th day after the immunization) and at the period of relapse (on the 38th day after the immunization).

SMILES: Cc1ccc(-c2cc(C(F)(F)F)nn2-c2ccc(S(N)(=O)=O)cc2)cc1 [Celecoxib, celecoxib, reference compound]
Average of pain thresholds, 30th day after operation ([1]; 30 mg/kg orally once a day for 14 days from the 16th day after operation): 3.1 g
Average of pain thresholds, 15th day after operation ([1]; day before start of administration, 30 mg/kg groups): 2.5 g

inhibition at 30 µM [2]: 50 to 75%
SMILES: CS(=O)(=O)Nc1cc2occ(N)c(=O)c2cc1Oc1ccccc1 [Compound B, N-(3-amino-4-oxo-6-phenoxy-4H-1-benzopyran-7-yl)methanesulfonamide]

inhibition at 30 µM [2]: 50 to 75%
SMILES: CC(=O)Nc1coc2cc(NS(C)(=O)=O)c(Oc3ccccc3)cc2c1=O [Compound C, N-[7-[(methylsulfonyl)amino]-4-oxo-6-phenoxy-4H-1-benzopyran-3-yl]acetamide]

inhibition at 30 µM [2]: 50 to 75%
SMILES: CS(=O)(=O)Nc1cc2occc(=O)c2cc1Oc1ccccc1 [Compound D, N-(4-oxo-6-phenoxy-4H-1-benzopyran-7-yl)methanesulfonamide]

inhibition at 30 µM [2]: ≥ 75%
SMILES: CS(=O)(=O)Nc1cc2oc(C(N)=O)cc(=O)c2cc1Oc1ccccc1 [Compound E, 7-[(methylsulfonyl)amino]-4-oxo-6-phenoxy-4H-1-benzopyran-2-carboxamide]

inhibition at 30 µM [2]: ≥ 75%
SMILES: CC(=O)Nc1cc(=O)c2cc(Oc3ccccc3)c(NS(C)(=O)=O)cc2o1 [Compound F, N-[7-[(methylsulfonyl)amino]-4-oxo-6-phenoxy-4H-1-benzopyran-2-yl]acetamide]

inhibition at 30 µM [2]: 50 to 75%
SMILES: CS(=O)(=O)Nc1cc2occ(C(N)=O)c(=O)c2cc1Oc1ccccc1 [Compound G, 7-[(methylsulfonyl)amino]-4-oxo-6-phenoxy-4H-1-benzopyran-3-carboxamide]

inhibition at 30 µM [2]: ≥ 75%
SMILES: CCS(=O)(=O)Nc1cc2occ(NC=O)c(=O)c2cc1Oc1ccccc1 [Compound H, N-[7-[(ethylsulfonyl)amino]-4-oxo-6-phenoxy-4H-1-benzopyran-3-yl]formamide]

inhibition at 30 µM [2]: ≥ 75%
SMILES: CS(=O)(=O)Nc1cc2oc(-c3ccccc3)cc(=O)c2cc1Oc1ccccc1 [Compound I, N-(4-oxo-6-phenoxy-2-phenyl-4H-1-benzopyran-7-yl)methanesulfonamide]

SMILES: O=C(O)c1cc(/N=N/c2ccc(S(=O)(=O)Nc3ccccn3)cc2)ccc1O [SASP, salazosulfapyridine]
Animals died, by period of initial onset ([3]; 15th day after immunization, 8 animals, 300 mg/kg orally once daily): (1 animal
EAE score, period of initial onset ([3]; 15th day after immunization, average, maximum score 14, oral once daily (Compound A 30 mg/kg, SASP 300 mg/kg)): 5.5
Incidence rate, period of initial onset ([3]; 15th day after immunization, mice having developed the disease/mice used, oral once daily from immunization (Compound A 30 mg/kg, SASP 300 mg/kg)): 7/7
Animals died, by period of relapse ([3]; 38th day after immunization, 8 animals, 300 mg/kg orally once daily): (2 animals
EAE score, period of relapse ([3]; 38th day after immunization, average, maximum score 14, oral once daily (Compound A 30 mg/kg, SASP 300 mg/kg)): 2.0
Incidence rate, period of relapse ([3]; 38th day after immunization, mice having developed the disease/mice used, oral once daily (Compound A 30 mg/kg, SASP 300 mg/kg)): 6/6
Effect on incidence rate / EAE score, paralysis of chronic relapsing EAE ([3]; oral once daily for 44 days from immunization (Compound A 30 mg/kg, SASP 300 mg/kg)): neither the incidence rate nor the EAE score was lowered
